# In patent US4432987A, “Crystalline benzenesulfonate salts of sultamicillin” (priority 1982, dated 1984):
# Counter-ions that a name gives are not always drawn.
# Legend:
# [1] = Storage of anhydrous salt under humidity / atmospheric moisture; type: physicochemical
# Source text: When 4-chlorobenzenesulfonic acid is used in the above procedure the corresponding anhydrous 4-chlorobenzenesulfonic acid addition salt is obtained.
# [2] = Stability on storage at 50° C. for three weeks, retained potency (HPLC); type: physicochemical; details: 30240 min
# Procedure: (§1) In the solubility and stability studies above samples of the materials were assayed by HPLC using a Chromegabond C-8* column (4.6 mm internal diameter×30 cm.). The mobile phase consisted of 30% by weight acetonitrile in pH 3 phosphate buffer (0.1 M). Flow rate, 1.6 ml/minute. Detection was by UV at 230 nm.
# [3] = Apparent solubility of sultamicillin salts in water and simulated gastric juice (without pepsin, pH 1.2), HPLC; type: physicochemical; details: for Final pH, Simulated Gastric Juice: final pH of the solubility test in simulated gastric juice; for Final pH, Water: final pH of the solubility test in water; for Apparent Solubility, Simulated Gastric Juice: simulated gastric juice without pepsin, pH 1.2, 30 minutes agitation; for Apparent Solubility, Simulated Gastric Juice / Apparent Solubility, Water: 30 min; for Apparent Solubility, Water: 30 minutes vigorous agitation
# Procedure: The solubility of the salts in water and simulated gastric juice without pepsin (pH 1.2) were compared. Equilibrium solubility was not determined since the compounds are not entirely stable in aqueous systems for the extended time required to reach equilibrium. Therefore, the apparent solubility was determined by vigorous agitation for 30 minutes with the solvent. The resulting mixture was then filtered and the amount of compound in solution determined by high pressure liquid chromatography (HPLC).
# as §1
# [4] = Stability and solubility of sultamicillin forms; type: physicochemical; details: for stability (in words): solid state / handling
# [5] = tested on: Sarcina lutea (ATCCC 9341); details: no beta-lactamase; sulbactam up to 100 μg./ml.
# [6] = tested on: Pasteurella histolytica (59B010); details: beta-lactamase mediated resistance; high concentrations alone or combined
structure (smiles),measurement,setting,value
CC1(C)S[C@@H]2[C@H](NC(=O)[C@H](N)c3ccccc3)C(=O)N2[C@H]1C(=O)OCOC(=O)[C@@H]1N2C(=O)C[C@H]2S(=O)(=O)C1(C)C,dihydrate formation upon exposure to atmospheric moisture,[1]; 48 hours,forms a dihydrate
"CC1(C)S[C@@H]2[C@H](NC(=O)[C@H](N)c3ccccc3)C(=O)N2[C@H]1C(=O)OCOC(=O)[C@@H]1N2C(=O)C[C@H]2S(=O)(=O)C1(C)C [4-Chlorobenzenesulfonate.2H2 O, 1,1-Dioxopenicillanoyloxymethyl 6-[D-(2-amino-2-phenylacetamido)]penicillanate 4-chlorobenzenesulfonate dihydrate]",potency retained upon storage,"[2]; listed as 4-chlorobenzenesulfonae.2H2 O, dihydrate",100%
same,"Final pH, Simulated Gastric Juice",[3]; dihydrate,1.1
same,"Final pH, Water",[3]; dihydrate,3.8
same,"Apparent Solubility, Simulated Gastric Juice",[3]; dihydrate,6.3 mg/mL
same,"Apparent Solubility, Water",[3]; dihydrate,3.3 mg/mL
"CC1(C)S[C@@H]2[C@H](NC(=O)[C@H](N)c3ccccc3)C(=O)N2[C@H]1C(=O)OCOC(=O)[C@@H]1N2C(=O)C[C@H]2S(=O)(=O)C1(C)C [Benzenesulfonate.2H2 O, 1,1-Dioxopenicillanoyloxymethyl 6-[D-(2-amino-2-phenylacetamido)]penicillanate benzenesulfonate dihydrate]",potency retained upon storage,[2]; benzenesulfonate dihydrate,97%
same,"Final pH, Simulated Gastric Juice",[3]; benzenesulfonate dihydrate,2.0
same,"Final pH, Water",[3]; benzenesulfonate dihydrate,3.4
same,"Apparent Solubility, Simulated Gastric Juice",[3]; benzenesulfonate dihydrate,1.8 mg/mL
same,"Apparent Solubility, Water",[3]; benzenesulfonate dihydrate,2.15 mg/mL
"CC1(C)S[C@@H]2[C@H](NC(=O)[C@H](N)c3ccccc3)C(=O)N2[C@H]1C(=O)OCOC(=O)[C@@H]1N2C(=O)C[C@H]2S(=O)(=O)C1(C)C [Hydrochloride, 1,1-Dioxopenicillanoyloxymethyl 6-[D-(2-amino-2-phenylacetamido)]penicillanate hydrochloride]",solubility in water / aqueous systems (in words),[4],highly soluble in water
same,stability in water (in words),[4]; aqueous,subject to hydrolytic decomposition
same,stability (in words),[4]; hydrochloride,poor solid state stability
same,potency retained upon storage,"[2]; listed as hydrochloride salt, hydrochloride",67%
same,"Final pH, Simulated Gastric Juice",[3]; hydrochloride,1.12
same,"Final pH, Water",[3]; hydrochloride,2.0
same,"Apparent Solubility, Simulated Gastric Juice",[3]; hydrochloride,> 79 mg/mL
same,"Apparent Solubility, Water",[3]; hydrochloride,> 94 mg/mL
"CC1(C)S[C@@H]2[C@H](NC(=O)[C@H](N)c3ccccc3)C(=O)N2[C@H]1C(=O)OCOC(=O)[C@@H]1N2C(=O)C[C@H]2S(=O)(=O)C1(C)C [Sultamicillin free base, 1,1-dioxopenicillanoyloxymethyl 6-[D-(2-amino-2-phenylacetamido)]penicillanate]",stability (in words),[4],poor handling characteristics and inadequate stability
CC1(C)S[C@@H]2[C@H](NC(=O)[C@H](N)c3ccccc3)C(=O)N2[C@H]1C(=O)O [ampicillin],"susceptibility / synergy, Sarcina lutea",[5],susceptible
same,"susceptibility / synergy, Pasteurella histolytica",[6],insensitivity
"CC1(C)S[C@@H]2[C@H](NC(=O)[C@H](N)c3ccccc3)C(=O)N2[C@H]1C(=O)OCOC(=O)[C@@H]1N2C(=O)C[C@H]2S(=O)(=O)C1(C)C [anhydrous salt, Anhydrous 1,1-Dioxopenicillanoyloxymethyl 6-[D-(2-amino-2-phenylacetamido)]penicillanate benzenesulfonate]",water content of dihydrate formed upon storage,"[1]; 50% relative humidity, 30 hours, by weight",4.5%
"CC1(C)[C@H](C(=O)O)N2C(=O)C[C@H]2S1(=O)=O [sulbactam, penicillanic acid 1,1-dioxide]","susceptibility / synergy, Sarcina lutea",[5],insensitive to sulbactam at concentrations as high as 100 μg./ml.
same,"susceptibility / synergy, Pasteurella histolytica",[6],insensitivity
